The source of these data is patent US12084411B2, “Hinokitiol analogues, methods of preparing and pharmaceutical compositions thereof” (The Board of Trustees of the University of Illinois, priority 2018, dated 2024).

“Also recorded” adds a separate entry of the source.

Data set [1] in a line: Iron efflux from liposomes using ferrozine. As to conditions: for transport of ferrous and ferric iron across model liposomal membranes: 5 μM small molecule; for iron (III) efflux from POPC liposomes: 30 mM FeCl3 inside. The class given is biochemical. Here is the method:
Iron (III) efflux from POPC liposomes was determined similar to previously reported (64). POPC liposomes were prepared as similarly reported (65) using 30 mM FeCl3, 62.5 mM citrate at pH=7.0 in 25 mM Mes/Tris buffer. External iron was removed by size exclusion chromatography using Sephadex G-50 and eluting with external buffer. External buffer consisted of 62.5 mM ascorbate at pH=7.0 in 25 mM Mes/Tris buffer. The liposomes were diluted to 1 mM phosphorus in this buffer. Ferrozine (Sigma 160601) was added (100X stock in external buffer) to a final concentration of 500 μM. Liposomal suspension was then transferred to a 96-well plate, and either DMSO or 5 μM hinokitiol, C2deOHino, deferiprone, or PIH (40X stock solution in DMSO) were added to initiate the experiment. The OD562 was determined every minute over the course of 2 hours using a plate-reader with continuous shaking at 30° C. to detect the relative amounts of external ferrozine-iron chelate at the indicated times. After 2 hours, liposomes were lysed with Triton-X to give 100% iron efflux.
Iron (II) efflux was performed as described above, however, the internal buffer alternatively consisted of 30 mM FeSO4, 62.5 mM ascorbate at pH=7.0 in 25 mM Mes/Tris buffer and Triton-X lysis was performed after 1 hour.
The rates of iron efflux with increasing concentrations of intraliposomal iron and/or hinokitiol were determined as described above using the indicated concentration of iron and hinokitiol. For the varying concentrations of iron, hinokitiol (10 μM) was added to the POPC liposomes, and the change in absorbance at 562 nm was determined over 2 hours. For the varying concentrations of hinokitiol, 30 mM intraliposomal iron was used as described above. The concentration of iron outside of liposomes was determined using the extinction coefficient for ferrozine-iron (27,900 M^−1 cm^−1) (66). This was used to determine the amount of iron released from liposomes at the indicated times using the total volume for each experiment. Rates of iron efflux were determined after one hour of hinokitiol treatment.

The test system of data set [2] is wild-type yeast (WT). Put plainly: Toxicity to wild type yeast (structure-activity study, FIG. 25). The method, then:
(§1) Growth rescue in yeast was performed similar to previously reported (20) using 10 μM hinokitiol in low iron SD liquid media containing 10 μM FeCl3 in a 96-well plate unless otherwise noted. Wild type and fet3Δftr1Δ controls treated with vehicle (DMSO) were performed under identical conditions using the same low iron SD media containing 10 μM FeCl3 in the absence of hinokitiol. Yeast were grown overnight in YPD media and diluted at an OD600 of 0.1 in SD media, diluted 10-fold, and incubated at 30° C. with continuous shaking (200 rpm). The OD600 was obtained 24-48 hours after inoculation unless otherwise noted.
(§2) Small molecule dose-response (FIG. 1F) with hinokitiol and C2-deoxy hinokitiol (C2deOHino, see synthesis below) was determined by addition of the small molecule (40X stock solution in DMSO) to give the indicated final concentrations.

Data set [3] has as its system DMT1-deficient MEL cells. The experiment in a line: Live cell fluorescence imaging and flow cytometry of compartmentalized iron in MEL cells. Type of data set: cell-based, mouse. As to conditions: for endosomal oxyburst green, cytosolic calcein green and mitochondrial RPA fluorescence: 1 μM. Here is the method: To visualize cytosolic and mitochondrial iron, confocal imaging of calcein green and RPA fluorescence was performed, respectively. MEL cells were induced for differentiation as described above. […] The cells were incubated for an additional 2 hours, and then were centrifuged and rinsed with PBS. […] The cells were then incubated at 37° C. for 15 minutes. […] The cells were then imaged within 10 minutes on a LSM710 microscope. Relative calcein green and RPA fluorescence per cell was determined by ImageJ analysis using >100 cells per experiment. […] MEL cells were induced for differentiation as described above. […] The cells were incubated for an additional 2 hours, and then were centrifuged and rinsed with PBS. The cells were then re-suspended in DMEM-HEPES buffer, and H2O2 (50 mM final concentration) was added. The cells were incubated at room temperature, and the oxyburst green fluorescence was then determined 10 minutes after addition of H2O2 on a LSM710 microscope. Relative oxyburst green fluorescence per cell was determined by ImageJ analysis using >100 cells per experiment. […] Median fluorescence was then normalized to shDMT1 for each dye. […] Median fluorescence was then normalized to shDMT1 for each dye.

For data set [4], the system named is fet3Δftr1Δ yeast. The experiment in a line: Growth rescue of fet3Δftr1Δ yeast with small molecules in liquid media. The class given is cell-based, Saccharomyces cerevisiae. As to conditions: liquid low iron SD media, 10 μM FeCl3. Here is the method: as §1, §2
Data set [5] deals with DMT1-deficient Caco-2 monolayers. The experiment in a line: 55Fe uptake and transport in DMT1-deficient Caco-2 monolayers. As to conditions: for iron uptake and transepithelial transport: apical addition (hinokitiol 500 nM), pH 5.5 apical, pH 7.4 basolateral, four hours. The method, then: Media from differentiated Caco-2 monolayers (P25-50, 21-28 days post seeding) grown on PET inserts in 6-well plates was aspirated, and monolayers were rinsed with PBS. 2 mL of basolateral fluid (serum-free DMEM at pH=7.4 in 10 mM HEPES buffer) was added to the basolateralside, and 1 mL of apical fluid (serum-free DMEM at pH=5.5 in 10 mM MES buffer) containing 200 nM ^55FeCl3 or the indicated concentration of FeCl3 and either DMSO vehicle, hinokitiol, C2deOHino, deferiprone, PIH, SIH, or deferoxamine mesylate (Sigma D9533) (500 nM Hino/C2deOHino for DMT1-deficiency, 1 μM Hino/C2deOHino for FPN1-deficiency, or indicated concentration of small molecule from a 1000X stock in DMSO) was added to the apical side via addition on the wall of the membrane insert without disrupting the cell monolayer. The monolayers were then incubated for four hours at 37° C. unless otherwise noted. A 100 μL aliquot of the basolateral fluid was removed, diluted in scintillation cocktail, and radioactivity was determined on a liquid scintillation counter to quantify relative amounts of ^55Fe transport. To determine intracellular ^55Fe, the basolateral and apical media was removed, and the monolayer was rinsed with PBS (×2). The cells were then lysed with 500 μL of 200 mM NaOH with nutator mixing overnight, and radioactivity was determined on a liquid scintillation counter after diluting the cell lysate in scintillation cocktail. All values were normalized to shControl monolayers unless otherwise noted. Absolute iron levels were determined through calibration of ^55Fe radioactivity levels with known standards and average mg of protein per membrane was determined by protein lysis with RIPA buffer containing protease inhibitors and quantified through a BCA kit according to manufacturer instructions.
TEER determination in Caco-2 monolayers (FIG. 12D and FIG. 14L) To determine Caco-2 membrane integrity, transport studies were performed as described above, except for the use of non-radioactive iron instead of ^55FeCl3. At the indicated time points, the transepithelial electrical resistance (TEER) was determined with an epithelial voltohmmeter and compared to the TEER of the membrane at the beginning of the experiment.
For orientation: Passage across Caco-2 layers is used to estimate intestinal permeability.

`CC(C)c1cccc(=O)cc1` [C2deOHino, C2-deoxy hinokitiol]: in data set [1], the “transport of ferrous and ferric iron across model liposomal membranes” value is listed as “minimal transport”; the “iron (III) efflux from POPC liposomes” value is listed as “no efflux up to 100 μM”. In data set [2], the “toxicity to wild type yeast” value is “no biological activity”. In addition, the “endosomal oxyburst green, cytosolic calcein green and mitochondrial RPA fluorescence” value in data set [3] was “no effect”. Further, the “restoration of fet3Δftr1Δ yeast growth, small molecule dose-response” value (shortened to “restoration of fet3Δftr1Δ yeast growth”) in data set [4] is reported as “no biological activity; also recorded: does not”. In data set [5], the “iron uptake and transepithelial transport” value was “did not promote both uptake and transport”.
As to `CC(C)c1cccc(=O)c(O)c1` [hinokitiol], in data set [1], the “transport of ferrous and ferric iron across model liposomal membranes” value was “autonomously transports both ferrous and ferric iron”; the “iron (III) efflux from POPC liposomes” value is “dose- and temperature-dependently promoted iron (III) efflux”. The “toxicity to wild type yeast” value in data set [2] is recorded as “kills wild-type yeast (WT) only at high concentrations”. Besides, the “endosomal oxyburst green, cytosolic calcein green and mitochondrial RPA fluorescence” value in data set [3] is “decreases endosomal oxyburst green fluorescence and quenches calcein green and RPA fluorescence”. Moreover, the “decrease of oxyburst green fluorescence” value in data set [3] (hinokitiol 1 μM) amounted to 2.1 fold. The “restoration of fet3Δftr1Δ yeast growth” value in data set [4] was “dose-dependently restores yeast growth”. In addition, the “restoration of fet3Δftr1Δ yeast growth” value in data set [4] (listed as Hinokitiol) is recorded as “rescues growth of iron transporter-deficient yeast (Fet3Ftr1) at low concentrations”. Besides, the “monolayer integrity (TEER)” value in data set [5] (500 nM) is on record as “did not disrupt monolayer integrity”. The “iron uptake and transepithelial transport” value in data set [5] is “restored uptake and transport”.
